Data published in patent US20240277698A1, “METHODS OF USING ALDOSTERONE SYNTHASE INHIBITORS” (CINCOR PHARMA, INC., priority 2021, published 2024).
Like-named read-outs stand apart in the source and are kept apart here.

Tests used:
[1] = Absolute bioavailability, 3 mg IV versus 3 mg oral; format: in vivo; conditions: human, plasma
[2] = SAD study Part 2: adverse events under low/normal salt diet and 3 mg IV dose; format: in vivo
Method: There were no dose-related increases in the incidence of AEs (Table 15). No severe AEs, SAEs, withdrawals due to AEs, or deaths were reported. A larger proportion of subjects reported AEs during the 3 mg IV dose (75%) compared to any of the oral doses (maximum of 66.7% with 3 mg during the low salt diet and with 10 mg during both the low and normal salt diet). Overall, the most frequently reported AEs were nasopharyngitis, asthenia, and dizziness. AEs reported by >1 subject at any dose level and with either salt diet were asthenia (2 subjects [33.3%] with 10 mg low salt diet, 2 subjects [33.3%] with placebo low salt diet), nasopharyngitis (3 subjects [37.5%] with 3 mg IV, 2 subjects [33.3%] with 10 mg low salt diet), dizziness (2 subjects [33.3%] with 3 mg low salt diet) and gingival pain (2 subjects [33.3%] with 10 mg low salt diet). Only 1 AE (dizziness) reported by a subject receiving 10 mg (R)-compound 1 under normal salt diet conditions was considered related to the study drug. One case of fractured coccyx and one case of concussion (both reported for subjects who received the IV dose) were moderate in intensity and all other AEs were mild in intensity. […]

[3] = Multiple-ascending dose (MAD) study, once daily for 10 days in healthy subjects: plasma pharmacokinetics; format: in vivo, human; conditions: for AUC extrap / CLss/F / RAUC (accumulation ratio AUC0-tau/AUC0-24h) / RCmax (accumulation ratio Cmax, D10/Cmax, D1) / AUC(0-t) / Cmax / AUC(0-inf) / AUC / Vd/F / half-life: mean (CV %); for AUC(0-t): read-out: AUC0-24 h; for AUC: read-out: AUC0-tau; for Vd/F: read-out: Vss/F; for half-life: read-out: t½ (converted)
Method: This was a randomized, double-blind study to assess the safety, tolerability, PK, and PD of multiple oral doses of (R)-compound 1 when administered to healthy adult subjects. The study consisted of 5 cohorts, with up to 12 subjects per cohort. Subjects were randomized in a 3:1 ratio to (R)-compound 1 or placebo once daily for 10 days as follows: • Cohort 1: 2.5 mg (R)-compound 1 or matching placebo (low salt diet in 9 subjects receiving (R)-compound 1 and 3 subjects receiving placebo); • Cohort 2: 5.0 mg (R)-compound 1 or matching placebo (low salt diet in 9 subjects receiving (R)-compound 1 and 3 subjects receiving placebo); • Cohort 3: 1.5 mg (R)-compound 1 or matching placebo (normal salt diet in 9 subjects receiving (R)-compound 1 and 3 subjects receiving placebo); • Cohort 4: 2.5 mg (R)-compound 1 or matching placebo (normal salt diet in 6 subjects receiving (R)-compound 1 and 2 subjects receiving placebo); and • Cohort 5: 0.5 mg (R)-compound 1 or matching placebo (normal salt diet in 9 subjects receiving (R)-compound 1 and 3 subjects receiving placebo).
For each subject, the study consisted of: • A screening period of up to 28 days; • A 5-day inpatient run-in period during which subjects adhered to a controlled, standardized diet and underwent baseline PD assessments; • A 15-day inpatient treatment period, during which subjects received (R)-compound 1 or placebo once daily for 10 days while adhering to a controlled, standardized diet, followed by PK and PD sampling over an additional 5 days; and • A follow-up visit 3 days (1 day) after discharge from the clinical unit. • A cortisol stimulation test (Cohorts 1 and 2 only) and standing aldosterone assessment (all cohorts) were performed on Days 1 and 10. Serial blood samples for PK and PD were obtained prior to and at specified time points over 24 hours after dosing on Day 1 as well as prior to and at specified time points over 120 hours after dosing on Day 10. In addition, blood samples for PK were collected prior to dosing on Days 8 and 9. Urine for PK and PD measurements was collected over 24 hours starting just prior to dosing on Day 1 as well as over 120 hours starting just prior to dosing on Day 10.
Study subjects were dosed with (R)-compound 1 (oral drinking solution) or matching placebo. The doses of (R)-compound 1 administered were 2.5 and 5.0 mg with a low salt diet and 1.5, 2.5, and 0.5 mg with a normal salt diet.
(only for (R)-compound 1).

[4] = 0.5 mg QD, normal salt diet, Day 10
[5] = 1.5 mg QD, normal salt diet, Day 10
[6] = 2.5 mg QD, low salt diet, Day 10
[7] = 2.5 mg QD, normal salt diet, Day 10
[8] = 5.0 mg QD, low salt diet, Day 10
[9] = human, plasma, oral, 0.5 mg, 0.5 mg QD, normal salt diet, Day 10
[10] = human, plasma, oral, 1.5 mg, 1.5 mg QD, normal salt diet, Day 10
[11] = human, plasma, oral, 2.5 mg, 2.5 mg QD, low salt diet, Day 10
[12] = human, plasma, oral, 2.5 mg, 2.5 mg QD, normal salt diet, Day 10
[13] = human, plasma, oral, 5 mg, 5.0 mg QD, low salt diet, Day 10

SMILES: CCC(=O)N[C@@H]1CCCc2c(-c3ccc4c(c3)CCC(=O)N4C)cncc21 [(R)-Compound 1, (R)—N-(4-(1-methyl-2-oxo-1,2,3,4-tetrahydroquinolin-6-yl)-5,6,7,8-tetrahydroisoquinolin-8-yl)propionamide]
- bioavailability [1]: 97.9%
- Any AE, % of subjects ([2]; 1 mg, low salt diet, N = 6): (33.3) %
- Any AE, number of subjects ([2]; 1 mg, low salt diet, N = 6): 2
- Related AE, number of subjects ([2]; 1 mg, low salt diet, N = 6): 0
- Any AE, % of subjects ([2]; 1 mg, normal salt diet, N = 6): (50.0) %
- Any AE, number of subjects ([2]; 1 mg, normal salt diet, N = 6): 3
- Related AE, number of subjects ([2]; 1 mg, normal salt diet, N = 6): 0
- proportion of subjects reporting AEs ([2]; 3 mg IV dose): 75%
- Any AE, % of subjects ([2]; 3 mg IV, N = 8): (75.0) %
- Any AE, number of subjects ([2]; 3 mg IV, N = 8): 6
- Related AE, number of subjects ([2]; 3 mg IV, N = 8): 0
- proportion of subjects reporting AEs, maximum of the oral doses ([2]; 3 mg low salt diet, 10 mg low and normal salt diet): ≤ 66.7%
- Any AE, % of subjects ([2]; 3 mg, low salt diet, N = 6): (66.7) %
- Any AE, number of subjects ([2]; 3 mg, low salt diet, N = 6): 4
- Related AE, number of subjects ([2]; 3 mg, low salt diet, N = 6): 0
- Any AE, % of subjects ([2]; 3 mg, normal salt diet, N = 6): (33.3) %
- Any AE, number of subjects ([2]; 3 mg, normal salt diet, N = 6): 2
- Related AE, number of subjects ([2]; 3 mg, normal salt diet, N = 6): 0
- AEs considered related to the study drug (dizziness) ([2]; 10 mg normal salt diet): 1 AE
- Any AE, % of subjects ([2]; 10 mg, low salt diet, N = 6): (66.7) %
- Any AE, number of subjects ([2]; 10 mg, low salt diet, N = 6): 4
- Related AE, number of subjects ([2]; 10 mg, low salt diet, N = 6): 0
- Any AE, % of subjects ([2]; 10 mg, normal salt diet, N = 6): (66.7) %
- Any AE, number of subjects ([2]; 10 mg, normal salt diet, N = 6): 4
- Related AE, % of subjects ([2]; 10 mg, normal salt diet, N = 6): (16.7) %
- Related AE, number of subjects ([2]; 10 mg, normal salt diet, N = 6): 1
- AUC extrap [3, 4]: 6.325 (42.2) %
- CLss/F [3, 4]: 3.421 (29.4) L/h
- RAUC (accumulation ratio AUC0-tau/AUC0-24h) ([3]; 0.5 mg QD, normal salt diet): 1.960 (13.9)
- RCmax (accumulation ratio Cmax, D10/Cmax, D1) ([3]; 0.5 mg QD, normal salt diet): 1.827 (14.2)
- AUC extrap [3, 5]: 6.106 (65.9) %
- CLss/F [3, 5]: 3.350 (27.5) L/h
- RAUC (accumulation ratio AUC0-tau/AUC0-24h) ([3]; 1.5 mg QD, normal salt diet): 2.307 (13.8)
- RCmax (accumulation ratio Cmax, D10/Cmax, D1) ([3]; 1.5 mg QD, normal salt diet): 2.132 (11.2)
- AUC extrap [3, 6]: 4.519 (45.4) %
- CLss/F [3, 6]: 3.277 (16.1) L/h
- RAUC (accumulation ratio AUC0-tau/AUC0-24h) ([3]; 2.5 mg QD, low salt diet): 2.147 (7.4)
- RCmax (accumulation ratio Cmax, D10/Cmax, D1) ([3]; 2.5 mg QD, low salt diet): 1.965 (15.1)
- AUC extrap [3, 7]: 3.832 (85.6) %
- CLss/F [3, 7]: 4.315 (36.9) L/h
- RAUC (accumulation ratio AUC0-tau/AUC0-24h) ([3]; 2.5 mg QD, normal salt diet): 1.994 (22.3)
- RCmax (accumulation ratio Cmax, D10/Cmax, D1) ([3]; 2.5 mg QD, normal salt diet): 1.706 (34.1)
- AUC extrap [3, 8]: 5.397 (52.6) %
- CLss/F [3, 8]: 3.207 (26.3) L/h
- RAUC (accumulation ratio AUC0-tau/AUC0-24h) ([3]; 5.0 mg QD, low salt diet): 2.507 (10.2)
- RCmax (accumulation ratio Cmax, D10/Cmax, D1) ([3]; 5.0 mg QD, low salt diet): 2.424 (13.6)
- AUC(0-t) ([3]; human, plasma, oral, 0.5 mg, 0.5 mg QD, normal salt diet, Day 1): 79.5 ng·h/mL
- Cmax ([3]; human, plasma, oral, 0.5 mg, 0.5 mg QD, normal salt diet, Day 1, read-out: Cmax, D 1): 5.36 ng/mL
- Tmax ([3]; human, plasma, oral, 0.5 mg, 0.5 mg QD, normal salt diet, Day 1, median (min, max), read-out: Tmax, D 1): 2 h
- AUC(0-inf) [3, 9]: 351 ng·h/mL
- AUC [3, 9]: 155 ng·h/mL
- Cmax ([3]; human, plasma, oral, 0.5 mg, 0.5 mg QD, normal salt diet, Day 10, read-out: Cmax, D 10): 9.72 ng/mL
- Vd/F [3, 9]: 152 L
- Tmax ([3]; human, plasma, oral, 0.5 mg, 0.5 mg QD, normal salt diet, Day 10, median (min, max), read-out: Tmax, D 10): 2 h
- AUC(0-t) ([3]; human, plasma, oral, 1.5 mg, 1.5 mg QD, normal salt diet, Day 1): 205 ng·h/mL
- Tmax ([3]; human, plasma, oral, 1.5 mg, 1.5 mg QD, normal salt diet, Day 1, median (min, max), read-out: Tmax, D 1): 2.5 h
- AUC(0-inf) [3, 10]: 1110 ng·h/mL
- AUC [3, 10]: 480 ng·h/mL
- Vd/F [3, 10]: 137 L
- Tmax ([3]; human, plasma, oral, 1.5 mg, 1.5 mg QD, normal salt diet, Day 10, median (min, max), read-out: Tmax, D 10): 2.5 h
- AUC(0-t) ([3]; human, plasma, oral, 2.5 mg, 2.5 mg QD, low salt diet, Day 1): 366 ng·h/mL
- Tmax ([3]; human, plasma, oral, 2.5 mg, 2.5 mg QD, low salt diet, Day 1, median (min, max), read-out: Tmax, D 1): 3 h
- AUC(0-inf) [3, 11]: 1490 ng·h/mL
- AUC [3, 11]: 783 ng·h/mL
- Cmax ([3]; human, plasma, oral, 2.5 mg, 2.5 mg QD, low salt diet, Day 10, read-out: Cmax, D 10): 54 ng/mL
- Vd/F [3, 11]: 135 L
- Tmax ([3]; human, plasma, oral, 2.5 mg, 2.5 mg QD, low salt diet, Day 10, median (min, max), read-out: Tmax, D 10): 2 h
- AUC(0-t) ([3]; human, plasma, oral, 2.5 mg, 2.5 mg QD, normal salt diet, Day 1): 344 ng·h/mL
- Tmax ([3]; human, plasma, oral, 2.5 mg, 2.5 mg QD, normal salt diet, Day 1, median (min, max), read-out: Tmax, D 1): 3 h
- AUC(0-inf) [3, 12]: 1460 ng·h/mL
- AUC [3, 12]: 677 ng·h/mL
- Vd/F [3, 12]: 150 L
- Tmax ([3]; human, plasma, oral, 2.5 mg, 2.5 mg QD, normal salt diet, Day 10, median (min, max), read-out: Tmax, D 10): 3 h
- AUC(0-t) ([3]; human, plasma, oral, 5 mg, 5.0 mg QD, low salt diet, Day 1): 658 ng·h/mL
- AUC(0-inf) [3, 13]: 3480 ng·h/mL
- AUC [3, 13]: 1660 ng·h/mL
- Vd/F [3, 13]: 134 L
- Tmax ([3]; human, plasma, oral, 5 mg, 5.0 mg QD, low salt diet, Day 10, median (min, max), read-out: Tmax, D 10): 3 h
- Tmax ([3]; human, plasma, oral, 0.5 to 5 mg QD, read-out: median Tmax, range across treatment groups): 0.98 to 4 h
- half-life ([3]; human, plasma, oral, 1.5 mg QD, normal salt diet, Day 10): 1800 min
- half-life ([3]; human, plasma, oral, 2.5 mg QD, normal salt diet, Day 10): 1530 min
- half-life ([3]; human, plasma, oral, 5.0 mg QD, low salt diet, Day 10): 1760 min
- half-life at 10 days ([3]; human, plasma, oral, approximately, read-out: mean t½, range): 1560 to 1860 min
- time after dosing within which peak concentrations typically observed ([3]; oral administration): ≤ 4 h
